Results from paper PMC8821551, “Binding of cationic analogues of α-MSH to lipopolysaccharide and disruption of the cytoplasmic membranes caused bactericidal action against Escherichia coli” (Scientific Reports, 2022).
Residues, ends and D or L forms follow the SMILES beside them.

What was measured:
E. coli ATCC 25922 = test: Transmission electron microscopy (TEM) of treated cells; format: cell-based, Escherichia coli; conditions: 100 µM peptide, 2 h, 37 °C, 10^8 CFU/mL mid-log cells
Experimental: To detect ultra-structural changes in E. coli on peptide treatment, TEM was used[16]. In brief, the mid-log E. coli cells (10^8 CFU/mL) were exposed with 100 µM concentration of all peptides independently for 2 h at 37 °C. After treatment, the cells were washed with PB buffer and fixed with 2.5% glutaraldehyde overnight at 4 °C. Next, the samples were post-fixed in 1.0% OsO4 and stained with uranyl acetate. After fixation, cells were dehydrated in a series of graded acetone and embedded in epoxy resin. Thin sections were made using a microtome (Leica EM UC6), which were transferred onto copper grids and stained with uranyl acetate followed by lead citrate. Samples were viewed via a transmission electron microscope (JEOL 2100F) to detect the ultrastructural and other morphological changes in the bacterial cells.

LPS from E. coli O55:B5 = test: LPS binding assay (BODIPY-TR-cadaverine displacement); parameters: species or system Escherichia coli; conditions: BC displacement, LPS 50 μg/mL, 5 µM BC, 50 mM Tris buffer pH 7.4, peptide 0.25 to 20 µM, Hill equation fit, mean Kd ± SD of two independent experiments, read-out: Kd (dissociation constant) with LPS
Experimental: The binding of α-MSH and its analogues to LPS was checked using BODIPY-TR-cadaverine (BC) as a fluorescent probe[24],[42]. BC fluorescence decreases when bound to cell-free LPS and increases when it is freely accessible in solution. LPS (50 μg/mL) from E. coli O55:B5 (Sigma-Aldrich, India) was incubated with 5 µM of BC in 50 mM Tris buffer (pH 7.4) for 4 h. Next, 800 µL of this LPS-BC mixture was added to varying concentrations (0.25 µM to 20 µM) of the peptides in a quartz cuvette, and the BC fluorescence was measured on a spectrofluorimeter (Shimadzu RF-5301 PC) with excitation at 580 nm and emission at 620 nm. Each experiment was done in duplicate independently. Increase in fluorescence intensities with increase in concentration of peptides were plotted and the dissociation constant (Kd) was calculated from each individual data set and is presented as mean value ± SD using Igor Pro 6.36 (Y = Bmax × Xˆh/(Kdˆh + Xˆh); where X: concentration of peptide (µM), Y: fluorescence intensity (a.u.), h: Hill slope)[43]. The molecular mass of LPS was taken as 20,000 Da as described elsewhere, and its concentration was calculated accordingly.
Table S1: The dissociation constant (Kd) of α-MSH and its analogues with LPS. […]

E. coli cells = test: LPS competitive inhibition assay; format: cell-based, Escherichia coli; conditions: peptide fixed at 10 µM, free LPS beyond 128 µg/mL; 10^5 CFU/mL mid-log cells, 90 min, 37 °C; peptide without LPS = 100% mortality
Experimental: To determine whether LPS could influence the peptide’s antimicrobial activity, the potency of the most charged analogue, KKK-MSH, was evaluated against E. coli in the presence of LPS, using the protocol reported elsewhere. Peptide and LPS from E. coli […] (Sigma-Aldrich, India) in equal volume (50 µL) were incubated in a 96-well sterile plate at 37 °C for 1 h. After that, 100 μL of mid-log E. coli cells were added (at a final concentration of 10^5 CFU/mL) to the LPS-peptide mixture for 90 min at 37 °C. The peptide concentration was kept constant at 10 µM, and the concentration of LPS was varied from 2 to 1024 μg/mL. After incubation, 50 μL of the reaction mixture from each well was diluted with an appropriate amount of HEPES-glucose buffer, spread on LB agar plates, and kept at 37 °C for 16 h. Then on the next day, colonies were counted and compared with control (in the absence of LPS, cells treated with only peptide were considered 100% mortal). Mortality was calculated using the following formula: %survival=CFU/mLintreatedsample/CFU/mLinuntreatedsample×100Cellmortality(%)=100-%survival

CSCC[C@H](NC(=O)[C@H](CCCCN)NC(=O)[C@H](Cc1ccc(O)cc1)NC(=O)[C@H](CCCCN)NC(C)=O)C(=O)N[C@@H](C)C(=O)N[C@@H](Cc1c[nH]cn1)C(=O)N[C@@H](Cc1ccccc1)C(=O)N[C@@H](CCCNC(=N)N)C(=O)N[C@@H](Cc1c[nH]c2ccccc12)C(=O)NCC(=O)N[C@@H](CCCCN)C(=O)N1CCC[C@H]1C(=O)N[C@H](C(N)=O)C(C)C [KKA-MSH] (Ac-KYKMAHFRWGKPV-NH2)
ultrastructural changes by TEM, in words (E. coli ATCC 25922): complete collapse of the E. coli membrane

CSCC[C@H](NC(=O)[C@H](CCCCN)NC(=O)[C@H](Cc1ccc(O)cc1)NC(=O)[C@H](CCCCN)NC(C)=O)C(=O)N[C@@H](CCCCN)C(=O)N[C@@H](Cc1c[nH]cn1)C(=O)N[C@@H](Cc1ccccc1)C(=O)N[C@@H](CCCNC(=N)N)C(=O)N[C@@H](Cc1c[nH]c2ccccc12)C(=O)NCC(=O)N[C@@H](CCCCN)C(=O)N1CCC[C@H]1C(=O)N[C@H](C(N)=O)C(C)C [KKK-MSH] (Ac-KYKMKHFRWGKPV-NH2)
Kd (LPS from E. coli O55:B5): 9.8 ± 6.3 µM
killing of E. coli cells in the presence of free LPS (E. coli cells): less than 20%
ultrastructural changes by TEM, in words (E. coli ATCC 25922): complete collapse of the E. coli membrane
